Experimental findings from patent publication US12209087B2, “AKT1 modulators” (Alterome Therapeutics, Inc., priority 2022, dated 2025) are described below.

Molecules are shown by their SMILES.

T1 sequence (P31749 whole entry E17K): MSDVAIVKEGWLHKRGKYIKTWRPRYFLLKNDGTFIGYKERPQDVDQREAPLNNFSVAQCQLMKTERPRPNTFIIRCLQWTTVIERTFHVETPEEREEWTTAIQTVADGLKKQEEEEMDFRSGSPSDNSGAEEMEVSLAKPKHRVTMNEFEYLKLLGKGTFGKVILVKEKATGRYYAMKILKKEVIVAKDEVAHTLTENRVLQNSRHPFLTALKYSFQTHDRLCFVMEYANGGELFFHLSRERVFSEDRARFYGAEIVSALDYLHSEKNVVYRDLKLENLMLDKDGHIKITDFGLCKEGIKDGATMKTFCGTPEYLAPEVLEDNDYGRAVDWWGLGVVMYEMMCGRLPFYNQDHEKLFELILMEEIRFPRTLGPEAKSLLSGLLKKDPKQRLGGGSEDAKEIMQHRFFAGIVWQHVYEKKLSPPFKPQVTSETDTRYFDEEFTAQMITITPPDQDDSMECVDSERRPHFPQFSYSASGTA

One assay addresses T1, full length AKT E17K (Homo sapiens, UniProt P31749, E17K).
T1 construct: host or cells: HEK-293 (ATCC CRL-1573)
Description: NanoBRET Target Engagement (TE) Assay. The settings on record: competitive displacement of tracer in cells, read-out: AKT1 E17K IC50. The class given is cell-based. The gist of the method: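 Compound and tracer incubated 2 h before luminescence at donor 450 nm and acceptor 600 nm, with extracellular signal inhibited. EC50 by sigmoidal variable-slope regression.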
(In BRET a luciferase serves as donor, and the signal depends on an acceptor being close.)
For `N#Cc1nccc(NC2CCN(Cc3ccc(-n4c(-c5cccnc5N)nc5ccc(-c6ccc(C(F)F)nc6)nc54)cc3)CC2)n1` [Example 645, 4-((1-(4-(2-(2-Aminopyridin-3-yl)-5-(6-(difluoromethyl)pyridin-3-yl)-3H-imidazo[4,5-b]pyridin-3-yl)benzyl)piperidin-4-yl)amino)pyrimidine-2-carbonitrile], the IC50 was under 15 nM.
The same measure, in the same setting: the value for `N#Cc1nccc(NC2CCN(Cc3ccc(-n4c(-c5cccnc5N)nc5ccc(-c6cnco6)nc54)cc3)CC2)n1` [Example 462, 4-((1-(4-(2-(2-Aminopyridin-3-yl)-5-(oxazol-5-yl)-3H-imidazo[4,5-b]pyridin-3-yl)benzyl)piperidin-4-yl)amino)pyrimidine-2-carbonitrile] was under 15 nM.
For `N#Cc1nccc(NC2CCN(Cc3ccc(-n4c(-c5cccnc5N)nc5ccc(-c6cnccc6C#N)nc54)cc3)CC2)n1` [Example 384, 4-((1-(4-(2-(2-Aminopyridin-3-yl)-5-(4-cyanopyridin-3-yl)-3H-imidazo[4,5-b]pyridin-3-yl)benzyl)piperidin-4-yl)amino)pyrimidine-2-carbonitrile], the IC50 fell in the range of 15 to 60 nM.
As for `Cc1cccc(-c2ccc3nc(-c4cccnc4N)n(-c4ccc(CN5CCC(Nc6ccnc(C#N)n6)CC5)cc4)c3n2)n1` [Example 571, 4-((1-(4-(2-(2-Aminopyridin-3-yl)-5-(6-methylpyridin-2-yl)-3H-imidazo[4,5-b]pyridin-3-yl)benzyl)piperidin-4-yl)amino)pyrimidine-2-carbonitrile], the IC50 is under 15 nM.
Still for that read-out and setting: to `N#Cc1nccc(NC2CCN(Cc3ccc(-n4c(-c5nccnc5N)nc5ccc(-c6cn(CF)nn6)nc54)cc3)CC2)n1` [Example 628, 4-((1-(4-(2-(3-Aminopyrazin-2-yl)-5-(1-(fluoromethyl)-1H-1,2,3-triazol-4-yl)-3H-imidazo[4,5-b]pyridin-3-yl)benzyl)piperidin-4-yl)amino)pyrimidine-2-carbonitrile] belongs under 15 nM.
Same read-out and setting: the value for `N#Cc1nccc(NC2CCN(Cc3ccc(-n4c(-c5cccnc5N)nc5ccc(Cl)nc54)cc3)CC2)n1` [Example 405, 4-((1-(4-(2-(2-Aminopyridin-3-yl)-5-chloro-3H-imidazo[4,5-b]pyridin-3-yl)benzyl)piperidin-4-yl)amino)pyrimidine-2-carbonitrile] was under 15 nM; that for `Cc1nnc(-c2ccc3nc(-c4cccnc4N)n(-c4ccc(CN5CCC(Nc6ccnc(C#N)n6)CC5)cc4)c3n2)o1` [Example 566, 4-((1-(4-(2-(2-Aminopyridin-3-yl)-5-(5-methyl-1,3,4-oxadiazol-2-yl)-3H-imidazo[4,5-b]pyridin-3-yl)benzyl)piperidin-4-yl)amino)pyrimidine-2-carbonitrile] was 15 to 60 nM; that for `N#Cc1nccc(NC2CCN(Cc3ccc(-n4c(-c5cccnc5N)nc5ccc(-c6ccccc6C(F)(F)F)nc54)cc3)CC2)n1` [Example 470, 4-((1-(4-(2-(2-Aminopyridin-3-yl)-5-(2-(trifluoromethyl)phenyl)-3H-imidazo[4,5-b]pyridin-3-yl)benzyl)piperidin-4-yl)amino)pyrimidine-2-carbonitrile] was 60 to 600 nM.
On the same count and under the same terms, to `N#Cc1nccc(NC2CCN(Cc3ccc(-n4c(-c5cccnc5N)nc5ccc(CO)nc54)cc3)CC2)n1` [Example 508, 4-((1-(4-(2-(2-Aminopyridin-3-yl)-5-(hydroxymethyl)-3H-imidazo[4,5-b]pyridin-3-yl)benzyl)piperidin-4-yl)amino)pyrimidine-2-carbonitrile] belongs 15 to 60 nM.
For `N#Cc1cccc(-c2ccc3nc(-c4cccnc4N)n(-c4ccc(CN5CCN(c6ccnc(C#N)n6)CC5)cc4)c3n2)c1` [Example 331, 4-(4-(4-(2-(2-Aminopyridin-3-yl)-5-(3-cyanophenyl)-3H-imidazo[4,5-b]pyridin-3-yl)benzyl)piperazin-1-yl)pyrimidine-2-carbonitrile], the half-inhibitory concentration (IC50) was under 15 nM.
On the same count and under the same terms, to `N#Cc1ccc(-c2ccc3nc(-c4cccnc4N)n(-c4ccc(CN5CCC(Nc6ccnc(C#N)n6)CC5)cc4)c3n2)cc1` [Example 320, 4-((1-(4-(2-(2-Aminopyridin-3-yl)-5-(4-cyanophenyl)-3H-imidazo[4,5-b]pyridin-3-yl)benzyl)piperidin-4-yl)amino)pyrimidine-2-carbonitrile] belongs under 15 nM; to `COc1ccc(-c2ccc3nc(-c4nccnc4N)n(-c4ccc(CN5CCC(Nc6ccnc(C#N)n6)CC5)cc4)c3n2)cn1` [Example 636, 4-((1-(4-(2-(3-Aminopyrazin-2-yl)-5-(6-methoxypyridin-3-yl)-3H-imidazo[4,5-b]pyridin-3-yl)benzyl)piperidin-4-yl)amino)pyrimidine-2-carbonitrile], under 15 nM.
Still for that read-out and setting: the value for `Cc1cn(-c2ccc3nc(-c4cccnc4N)n(-c4ccc(CN5CCC(Nc6ccnc(C#N)n6)CC5)cc4)c3n2)nn1` [Example 593, 4-((1-(4-(2-(2-Aminopyridin-3-yl)-5-(4-methyl-1H-1,2,3-triazol-1-yl)-3H-imidazo[4,5-b]pyridin-3-yl)benzyl)piperidin-4-yl)amino)pyrimidine-2-carbonitrile] was under 15 nM.

The assay is the same for the next values; noted with them: competitive tracer displacement in living cells, read-out: AKT1 E17K IC50.
With `N#Cc1cc(NCc2ccc(-n3c(-c4cccnc4N)nc4cccnc43)cc2)ncn1` [Example 135, 6-((4-(2-(2-aminopyridin-3-yl)-3H-imidazo[4,5-b]pyridin-3-yl)benzyl)amino)pyrimidine-4-carbonitrile], the IC50 lay within 600 to 10000 nM.
Same read-out and setting: to `N#Cc1cnnc(NC2CCN(Cc3ccc(-n4c(-c5cccnc5N)nc5ccc(-c6ccccc6)nc54)cc3)CC2)c1` [Example 54, 6-((1-(4-(2-(2-Aminopyridin-3-yl)-5-phenyl-3H-imidazo[4,5-b]pyridin-3-yl)benzyl)piperidin-4-yl)amino)pyridazine-4-carbonitrile] belongs 60 to 600 nM; to `CC(=O)Nc1cccc(-c2ccc3nc(-c4cccnc4N)n(-c4ccc(CN5CCN(c6nccc(C#N)n6)CC5)cc4)c3n2)c1` [Example 46, N-(3-(2-(2-Aminopyridin-3-yl)-3-(4-((4-(4-cyanopyrimidin-2-yl)piperazin-1-yl)methyl)phenyl)-3H-imidazo[4,5-b]pyridin-5-yl)phenyl)acetamide], under 15 nM.
On the same count and under the same terms, the value for `N#Cc1cc(C(=O)NC2CCN(Cc3ccc(-n4c(-c5cccnc5N)nc5cccnc54)cc3)CC2)ccn1` [Example 23, N-(1-(4-(2-(2-aminopyridin-3-yl)-3H-imidazo[4,5-b]pyridin-3-yl)benzyl)piperidin-4-yl)-2-cyanoisonicotinamide] was 600 to 10000 nM; that for `N#Cc1ccnc(OC2CCN(Cc3ccc(-n4c(-c5cccnc5N)nc5ccc(-c6ccccc6)nc54)cc3)CC2)c1` [Example 8, 2-((1-(4-(2-(2-Aminopyridin-3-yl)-5-phenyl-3H-imidazo[4,5-b]pyridin-3-yl)benzyl)piperidin-4-yl)oxy)isonicotinonitrile] was 600 to 10000 nM; that for `N#Cc1ccnc(NC2CCN(Cc3ccc(-n4c(-c5cccnc5N)nc5cccnc54)cc3)CC2)n1` [Example 77, 2-((1-(4-(2-(2-Aminopyridin-3-yl)-3H-imidazo[4,5-b]pyridin-3-yl)benzyl)piperidin-4-yl)amino)pyrimidine-4-carbonitrile] was 60 to 600 nM.
For the compound `N#Cc1nccc(N2CCN(Cc3ccc(-n4c(-c5cccnc5N)nc5ccc(-c6cccc(Cl)c6)nc54)cc3)CC2)n1` [Example 296, 4-(4-(4-(2-(2-Aminopyridin-3-yl)-5-(3-chlorophenyl)-3H-imidazo[4,5-b]pyridin-3-yl)benzyl)piperazin-1-yl)pyrimidine-2-carbonitrile], the IC50 was under 15 nM.
Still for that read-out and setting: the value for `N#Cc1ccc(NC2CCN(Cc3ccc(-n4c(-c5cccnc5N)nc5cccnc54)cc3)CC2)cn1` [Example 157, 5-((1-(4-(2-(2-aminopyridin-3-yl)-3H-imidazo[4,5-b]pyridin-3-yl)benzyl)piperidin-4-yl)amino)picolinonitrile] was 600 to 10000 nM; that for `CC(=O)Nc1cccc(-c2ccc3nc(-c4cccnc4N)n(-c4ccc(CN5CCN(c6cccc(C#N)n6)CC5)cc4)c3n2)c1` [Example 39, N-(3-(2-(2-Aminopyridin-3-yl)-3-(4-((4-(6-cyanopyridin-2-yl)piperazin-1-yl)methyl)phenyl)-3H-imidazo[4,5-b]pyridin-5-yl)phenyl)acetamide] was 60 to 600 nM; that for `N#Cc1cc(C(=O)NCc2ccc(-n3c(-c4cccnc4N)nc4cccnc43)cc2)ccn1` [Example 122, N-(4-(2-(2-Aminopyridin-3-yl)-3H-imidazo[4,5-b]pyridin-3-yl)benzyl)-2-cyanoisonicotinamide] was 600 to 10000 nM.
Same read-out and setting: to `N#Cc1ccnc(N2CCN(Cc3ccc(-n4c(-c5cccnc5N)nc5ccc(-c6ccccc6)nc54)cc3)CC23CC3)n1` [Example 199, 2-(7-(4-(2-(2-Aminopyridin-3-yl)-5-phenyl-3H-imidazo[4,5-b]pyridin-3-yl)benzyl)-4,7-diazaspiro[2.5]octan-4-yl)pyrimidine-4-carbonitrile] belongs 60 to 600 nM; to `N#Cc1cncc(C(=O)NC2CCN(Cc3ccc(-n4c(-c5cccnc5N)nc5ccc(-c6ccccc6)nc54)cc3)CC2)c1` [Example 57, N-(1-(4-(2-(2-Aminopyridin-3-yl)-5-phenyl-3H-imidazo[4,5-h]pyridin-3-yl)benzyl)piperidin-4-yl)-5-cyanonicotinamide], 60 to 600 nM.
`N#Cc1nccc(NC2CCN(Cc3ccc(-n4c(-c5cccnc5N)nc5ccc(C6CCCCC6)nc54)cc3)CC2)n1` [Example 264, 4-((1-(4-(2-(2-Aminopyridin-3-yl)-5-cyclohexyl-3H-imidazo[4,5-b]pyridin-3-yl)benzyl)piperidin-4-yl)amino)pyrimidine-2-carbonitrile]: the IC50 was under 15 nM.
Same read-out and setting: the value for `CC(=O)Nc1cccc(-c2ccc3nc(-c4cccnc4N)n(-c4ccc(CN5CCN(c6cnc(C#N)nc6)CC5)cc4)c3n2)c1` [Example 42, N-(3-(2-(2-Aminopyridin-3-yl)-3-(4-((4-(2-cyanopyrimidin-5-yl)piperazin-1-yl)methyl)phenyl)-3H-imidazo[4,5-b]pyridin-5-yl)phenyl)acetamide] was 15 to 60 nM.

In general, IC50 refers to the concentration needed to halve the response being measured.
